Where no end group is shown, it is not given here.
How the values were obtained:
BaxΔC21 [1] = molecular target: T1, BaxΔC21 (Homo sapiens, UniProt Q07812, C126S/C62S); assay: Bax binding assay: SPR, BH3 peptides displacing BaxΔC from a BimBH3 chip; settings: SPR competition, 0.5% octylglucoside
T1 construct: made in house; host or cells: Escherichia coli BL21(DE3) or ER2566
Protocol: Bax binding assays were performed using a protocol modified from that described previously.[18] […] IC50 values were calculated with GraphPad Prism (GraphPad Software, La Jolla, CA, USA).

BaxΔC21 [2] = assay: Core/latch dimer formation of BaxΔC21 with CHAPS and BH3 peptide, analysed by SEC; type: biochemical; settings: BaxΔC21 2 mg/ml, twofold molar excess of peptide, 1% CHAPS, 1 h at room temperature
full-length Bax = assay: Liposome permeabilisation (carboxy-fluorescein release) by full-length Bax in response to BH3 peptides; type: biochemical; settings: liposomes 4 μg/ml, 50 nM full-length Bax, 500 nM BH3 peptide, 1 h at RT; three independent experiments
Protocol: The suspension was extruded through a 100 nm pore size membrane and then passed over a PD10 column to remove unincorporated dye. Liposomes at 4 μg/ml were incubated with 50 nM full-length Bax and 500 nM BH3 peptide in SUV buffer for 1 h at RT. Fluorescence of released self-quenching 5(6)-carboxy-fluorescein was measured with an excitation wavelength of 485 nm and emission wavelength of 535 nm.

[3] = tested on: mitochondria isolated from Bak−/− Bax−/− mouse embryonic fibroblasts (MEFs) ectopically expressing BaxS184L; assay: Cytochrome c release from isolated mitochondria; type: cell-based; settings: immunoblot of supernatant and pellet, representative of two independent experiments
Protocol: To test whether this change in binding affinity influenced apoptotic activity, we assessed the ability of each peptide to induce cytochrome c release from mitochondria isolated from Bak^−/− Bax^−/− mouse embryonic fibroblasts (MEFs) ectopically expressing the mitochondrially targeted Bax variant BaxS184L.[28]
BaxS184L was stably expressed in Bax^−/− Bak^−/− MEFs and cytochrome c release assays were performed as described for Bak.[23] Supernatant and pellet fractions were separated and analysed for cytochrome c by immunoblotting.

T1 sequence (Q07812 1-171 C62S/C126S): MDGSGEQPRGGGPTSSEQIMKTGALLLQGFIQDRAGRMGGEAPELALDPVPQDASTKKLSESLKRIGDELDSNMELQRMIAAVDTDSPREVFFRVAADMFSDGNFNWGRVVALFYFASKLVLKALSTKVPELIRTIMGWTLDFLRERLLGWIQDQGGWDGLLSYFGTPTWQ

## SESQEDIIRNIARHLRQVGDSMDRSIPPGLVNGL [BidBH3 A91R]
BaxΔC21 [1]
  binding to BaxΔC21 in the SPR assay: behaved similar to BimBH3
BaxΔC21 [2]
  ability to trigger core/latch dimer formation of BaxΔC21: largely unaffected
full-length Bax
  capacity to activate Bax in liposome permeabilisation assay: enhanced activity over BidBH3
[3]
  potency at releasing cytochrome c from mitochondria: at best a marginally more effective than BidBH3

— PMC4650713, “Crystal structure of Bax bound to the BH3 peptide of Bim identifies important contacts for interaction” (Cell Death & Disease, 2015)
